# Data from patent US20150125403A1, “PERSONAL CARE AND COSMETIC COMPOSITIONS COMPRISING RENEWABLY-BASED, BIODEGRADABLE 1,3-PROPANEDIOL” (DuPont Tate & Lyle Bio Products Company, LLC, priority 2006, published 2015).
# Columns and labels:
# [1] = viscosity of the composition; type: physicochemical; conditions: cosmetic emulsion of Example 1 made with the named glycol instead of Bio-PDO
# Method: Brookfield Model RV−Spindle 5 at 20 rpm for 1 minute (factor×200)
# Brookfield Model RV−Spindle T at 5 rpm for 1 minute (factor×10,000)
# human skin [2] = assay: human skin patch test with approximately 100 subjects; type: in vivo; conditions: 5, 25, and 50% PDO
# Description: (§1) Based on these studies PDO is not expected to be a skin irritant or sensitizer in humans.
# human skin [3] = assay: second human skin patch test; type: in vivo; conditions: 25, 50, and 75% (pH 7)
# Description: as §1
viscosity of the cosmetic emulsion containing the glycol [1],Compound,skin reactions indicative of irritation or sensitization (human skin [2]),patch test irritation and cumulative irritation of human skin (human skin [3])
9600 cps,"CC(CO)CO [2-methyl-1,3-propanediol]",–,–
–,"OCCCO [PDO, 1,3-propanediol]",did not cause any skin reactions indicative of irritation or sensitization,–
12600 cps,"CC(O)CO (centres unmarked) [propylene glycol, 1,2-propanediol]",–,patch test irritants and cumulative irritants for human skin

Compound,viscosity of the cosmetic emulsion containing the glycol [1],skin reactions indicative of irritation or sensitization (human skin [2]),patch test irritation and cumulative irritation of human skin (human skin [3])
"CC(O)CCO (centres unmarked) [1,3-butylene glycol]",6000 cps,–,–
